Measured values reported in patent publication US7045515B2, “β-lactam compounds process for reproducing the same and serum cholesterol-lowering agents containing the same” (Kotobuki Pharmaceutical Co., Ltd., priority 2001, dated 2006).

Tests used:
[1] = system: α-N-acetyl-D-galactosaminidase; test: Biological stability test against glycosidase (remaining substrate by NMR); type: in vitro ADME; conditions: for remaining substrate: α-N-acetyl galactosaminidase 0.32 unit, citric acid buffer pD=3, 35° C.
Protocol: [Biological Stability Test]
To evaluate the stability of C-glycoside, the biological stability of C-allyl derivative (A) and O-allyl derivative (B) against to α-N-acetyl-D-galactosaminidase as glycosidase ware compared according to Mark von Itzstein's method (Org. Lett., 1999, 1, 443–446).
[drawing 118] • enzyme; α-N-acetyl galactosaminidase 0.32 unit (1.69 unit/mL 0.1% BSA containing 0.5M sodium citrate buffer) • solvent; citric acid buffer (pD=3) 0.6 mL • temperature; 35° C. • procedure; Substrate (2 mg) was dissolved in citric acid buffer (0.6 mL) and α-N-acetyl galactosaminidase (0.32 unit) was added. NMR spectrum was determined in every constant time and the content of the remaining substrates were determined.

[2] = system: hypercholesterolemic hamster; test: Hypocholesterolemic activity in hamsters fed a 0.5%-cholesterol diet; type: in vivo; conditions: Mesocricetus auratus, po, 96 h, dosage day 4, changed percent, negative = hypocholesterolemic action, read-out: Serum cholesterol (%); for change in vivo at 3 mg/kg: 3 mg/kg orally daily; for change in vivo at 0.3 mg/kg: 0.3 mg/kg orally daily
Protocol: [Hypocholesterolemic Agents Using the Hypercholesterolemic Hamster]
Hamsters were derived into groups with 3 animals per group and fed a 0.5%-cholesterol containing CE-2 diet (CLEA Japan Inc.) for 4 or 7 days. The normal dietary group were fed a standard CE-2 during the experiment. Each compound or vehicle (0.2 mL of corn oil) per 100 g body weight was orally administered daily for 4 or 7 days from the day that high-cholesterol diet was started. At 20 hr after the final administration, blood samples were collected from the abdominal aorta of non-fasted animals under anesthesia with diethylether. Serum cholesterol was measured by enzymatic method using cholesterol E-test wako (Wako Pure Chemical Industries). Activity of the test compounds is expressed as percent reduction of the test compound on the basis of comparison with rised total cholesterol treated only with no-treatment-high-cholesterol diet. The test compounds with the optical rotation value in the compounds 1–58 were evaluated as the chiral compounds.

Compound: C=CC[C@H]1O[C@H](CO)[C@H](O)[C@H](O)[C@H]1NC(C)=O [A]
- effect of enzyme on substrate (degradation) ([1]; after 24 h): unaffected by enzyme
- remaining substrate ([1]; time 2): 100
- remaining substrate ([1]; time 4): 100
- remaining substrate ([1]; time 6): 100
- remaining substrate ([1]; time 8): 100
- remaining substrate ([1]; time 10): 100
- remaining substrate ([1]; time 12): 100
- remaining substrate ([1]; time 18): 100
- remaining substrate ([1]; time 24): 100

Compound: O=C1[C@H](CC[C@H](O)c2ccc(F)cc2)[C@@H](c2ccc(F)cc2)N1c1ccc(C[C@@H]2O[C@H](CO)[C@@H](O)[C@H](O)[C@H]2O)cc1 [Compound 38, (4S,3R)-3-[(3S)-3-(4-Fluorophenyl)-3-hydroxypropyl]-1-(4-{[(2S,5S,3R,4R,6R)-3,4,5-trihydroxy-6-(hydroxymethyl)perhydro-2H-pyran-2-yl]methyl}phenyl)-1-(4-fluorophenyl)azetidine-2-one]
- melting point: 200 to 201 °C
- change in vivo at 10 mg/kg ([2]; 10 mg/kg orally daily): -2%

Compound: O=C1[C@H](CC[C@H](O)c2ccc(F)cc2)[C@@H](c2ccc(/C=C/[C@@H]3O[C@H](CO)[C@@H](O)[C@H](O)[C@H]3O)cc2)N1c1ccc(F)cc1 [Compound 45, (4S,3R)-3-[(3S)-3-(4-Fluorophenyl)-3-hydroxypropyl]4-(4-{[(2S,5S,3R,4R,6R)-3,4,5-trihydroxy-6-(hydroxymethyl)perhydro-2H-pyran-2-yl]ethene}phenyl)-1-(4-fluorophenyl)azetidine-2-one]
- melting point: 84 to 86 °C
- change in vivo at 3 mg/kg [2]: -136%

Compound: O=C1[C@H](CC[C@H](O)c2ccc(F)cc2)[C@@H](c2ccc(CC[C@@H]3O[C@H](CO)[C@@H](O)[C@H](O)[C@H]3O)cc2)N1c1ccc(F)cc1 [Compound 46, (4S,3R)-3-[(3S)-3-(4-Fluorophenyl)-3-hydroxypropyl]4-(4-([(2S,5S,3R,4R,6R)-3,4,5-trihydroxy-6-(hydroxymethyl)perhydro-2H-pyran-2-yl]ethyl}phenyl)-1-(4-fluorophenyl)azetidine-2-one]
- melting point: 153 to 155 °C
- change in vivo at 3 mg/kg [2]: -147%

Compound: O=C1[C@H](CC[C@H](O)c2ccc(F)cc2)[C@@H](c2ccc(CC[C@@H]3O[C@H](CO)[C@@H](O)[C@H](O)[C@H]3O)cc2)N1c1ccccc1 [Compound 56]
- melting point: 82 to 84 °C
- change in vivo at 0.3 mg/kg [2]: -84%

Compound: Cc1ccc(N2C(=O)[C@H](CC[C@H](O)c3ccc(F)cc3)[C@H]2c2ccc(CC[C@@H]3O[C@H](CO)[C@@H](O)[C@H](O)[C@H]3O)cc2)cc1 [Compound 57]
- melting point: 116 to 118 °C
- change in vivo at 0.3 mg/kg [2]: -81.3%
